# Assays:
# [1] = test system: AR-responsive transcript FKBP5; test: AR functional RT-qPCR assay (FKBP5 transcript) in CWR22Pc-R1-AD1 cells; format: cell-based, human; settings: 48 h, 1 nM DHT
# From the text: oxygen from the donor to the acceptor, exciting a fluorophore to emit light at 520-620 nm5.
# Two primary anti-AR antibodies derived from mouse and rabbit were applied to bind AR simultaneously at separate epitopes. Secondary AlphaScreen® antibodies were combined with the primary antibodies in the form of AlphaScreen® donor beads functionalised with antibodies recognising mouse antibody IgG (PerkinElmer AS104D), and AlphaScreen® acceptor beads functionalised with antibodies recognising rabbit antibody IgG (PerkinElmer AL104C). […]
# red free RPMI1640 media supplemented with 10% charcoal-stripped serum was used throughout. […] Media was removed using an ELX405 CW washer (BioTek) and 12 µL RealTime ready Cell Lysis Kit supplemented with RNAse inhibitor (Roche) was added per well. […] RealTime ready RNA Virus Master Mix (Roche) was prepared following manufacturer’s instructions, supplemented with primers and probes for FKBP5 (FAM, IDT Ref Seq # NM_001145776(3)) and β-Actin (VIC, IDT Ref Seq # NM_001101(1)). […] PCR plates were sealed and analysed using a LightCycer®II 480 (Roche). […] 40 PCR cycles were performed consisting of 30 sec at 95 °C, 20 sec at 60 °C, fluorescence acquisition, and 1 sec at 72 °C. Calculated Cq values were exported for analysis. […]
# [2] = test system: AR-driven transcription (ARE-Luciferase); test: AR-driven transcription ARE Luciferase reporter assay in CWR22Pc-R1-AD1 cells; format: cell-based, human; settings: 1 nM DHT, 24 h; for IC50: CWR22Pc-R1-AD1 cells, read-out: AR-driven transcription (ARE-Luciferase), 24 h, IC50; for Conclusion: activity in ARE-Luciferase assay: Supplementary Table S1;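 as to all read-outs here: cells stably carrying an ARE-driven firefly luciferase reporter, with luminescence as read-out, tested in phenol red free RPMI containing 10% charcoal stripped FBS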
# Experimental: 15 µL 2x Steady-Glo® reagent (Promega) was added per well and incubated 15 min in the dark before reading luminescence using an EnVision platereader. Experiments were performed in phenol red free RPMI media supplemented with 10% charcoal stripped FBS.
IC50 [2] [µM],SMILES,reduction of AR-responsive transcript FKBP5 (RT-qPCR) [1],Conclusion: activity in ARE-Luciferase assay [2]
7.4,N#Cc1cc2cc(CN3CCC(Nc4ncnc5sc(CC(F)(F)F)cc45)CC3)ccc2[nH]1 [MI-136],confirmed,Active
11,Cc1c(CN2CCC(Nc3ncnc4sc(CC(F)(F)F)cc34)CC2)ccc2c1cc(C#N)n2Cc1cn[nH]c1 [MI-503],confirmed,Active
